Test results taken from ChEMBL document CHEMBL1146996, “Hispidin analogs from the mushroom Inonotus xeranticus and their free radical scavenging activity” (Bioorg Med Chem Lett, 2006).

How the values were obtained:
Assay type in all cases: functional
[1] = system: Radical scavenging activity; assay: ABTS radical scavenging activity
[2] = system: Radical scavenging activity; assay: Superoxide radical scavenging activity
[3] = system: Radical scavenging activity; assay: DPPH radical scavenging activity

Row | SMILES | IC50 [1] [µM] | IC50 [2] [µM] | IC50 [3] [µM]
1 | COc1cc(/C=C/c2cc(O)c([C@H]3C(=O)C=C(C)O[C@@H]3c3ccc(O)c(O)c3)c(=O)o2)ccc1O [METHYLDAVALLIALACTONE] | 1.5 | 5.4 | 18.7
2 | COc1cc(/C=C/c2cc3oc(-c4ccc(O)c(O)c4)c(C(C)=O)c3c(=O)o2)ccc1O [METHYLINOSCAVIN C] | 12.3 | > 100 | > 100

Next, values leading:

Row | IC50 [1] [µM] | IC50 [2] [µM] | IC50 [3] [µM] | SMILES
3 | 2.8 | 2.9 | 31.7 | O=C(O)/C=C/c1ccc(O)c(O)c1 [CAFFEIC ACID]
4 | 7.8 | > 100 | > 100 | CC(=O)c1c(-c2ccc(O)c(O)c2)oc2cc(/C=C/c3ccc(O)c(O)c3)oc(=O)c12 [INOSCAVIN C]
5 | 0.8 | 2.3 | 3.4 | CC1=CC(=O)[C@H](c2c(O)cc(/C=C/c3ccc(O)c(O)c3)oc2=O)[C@@H](c2ccc(O)c(O)c2)O1 [DAVALLIALACTONE]
